The values that follow come from patent US20140100165A1, “PREVENTION OF KIDNEY INJURY OR DISEASE” (University of Florida Research Foundation, priority 2012, published 2014).

Series [1] has as its system Acute Kidney Injury (AKI) in patients undergoing cardiac surgery on cardiopulmonary bypass. Format: in vivo. Particulars: for kidney function as measured by estimated GFR: seven day post-operative period. An excerpt: The CS007 trial was designed to study both short and long term efficacy signals (FIG. 5).
Primary Aims • Safety: Safety and tolerability vs. placebo • Efficacy: Max post-operative change in absolute values of SCr compared to baseline within the first 7 days after surgery or until discharge from hospital, whichever comes first vs. placebo.
Secondary aims • Composite: • Assess the proportion of patients reaching the composite endpoint of death, need for RRT or a 25% reduction in renal function over a 90 day post-operative period vs. placebo. • AKIN: Assess post-operative incidence of AKI within 48 hours post-surgery • RIFLE: Assess post-operative incidence of AKI within first 7 days post-surgery. • SCr: Changes between surgery and postoperative day 7. • GFR: Changes at day 90 compared to baseline. • eGFR: Changes between surgery and postoperative day 7
Each dosage was provided over a period of 10 minutes. As used throughout this disclosure and unless specified otherwise, “μg/kg” refers to […] AP214 per kg bodyweight of the patient being treated.
Moreover, in the same double-blind study described in this Example, patients undergoing cardiac surgery on cardiopulmonary bypass (CPB) were randomized to placebo (PBO; n=26), AP214 given at either 600 μg/kg (n=25), or 800 μg/kg (n=26), divided into 3 bolus infusions at the predetermined intervals as described above. AKI was determined according to AKIN and RIFLE scores.

A short description of series [2]: Example 3: evaluation of rate of infusion of AP214 (adverse events, tolerability). Format: in vivo, human. The procedure: To establish a suitable rate of infusion of AP214 a set of patient trials were performed.
AP214 isotonic solution single ascending doses (25, 50 and 100 μg/kg) for intravenous infusion administered over 10 minutes, or placebo (saline infusion).
AP214 isotonic solution single doses (100 μg/kg over 1 minute; 100 μg/kg over 30 seconds; 200 μg/kg over 30 seconds) for intravenous infusion.

In series [3] the test system is Acute Kidney Injury (AKI) in patients undergoing cardiac surgery. As to the kind of experiment: Example 1: prevention of AKI by different dosage regimes of AP214 in patients undergoing cardiac surgery. The series is classed as in vivo, human. The method, then: Each of 12 patients undergoing cardiac surgery (the AP214 group) was dosed with 600 μg/kg AP214: 200 μg/kg at skin incision, 200 μg/kg at cross clamp release, and 200 μg/kg 6-hour after cross clamp release. Each dosage was provided over a period of 10 minutes. The placebo group included 13 patients undergoing cardiac surgery without AP214 infusion.
Objectives • trial objective was to assess the effect of AP214 on • 1) changes in serum creatinine, cystatin-C and carbamade, • 2) on eGFR and • 3) on the development of post-surgical acute kidney injury (AKI) • AKI also assessed (post-hoc analysis) by AKIN and RIFLE
Three different definitions of AKI were tested: • 1) 3 patients in the AP214 group developed AKI, in contrast to 7 patients in the placebo group who developed AKI. AKI is defined as in the CS005 protocol: • An absolute increase in serum creatinine of more than or equal to 26.4 μmol/l (0.3 mg/dl) or • A percentage increase in serum creatinine of more than or equal to 50% (1.5-fold from baseline) from Day 0-14 and/or • Urine output less than 0.5 mL/kg per hour for more than 6 hours. • 2) AKI according to the AKIN score as presented in FIG. 3a, and • 3) AKI according to the RIFLE score as presented in FIG. 3b.

The test system of series [4] is complete warm ischemia in the kidney. Particulars: pigs; 200 μg/kg, 10 ml i.v. bolus during 1 minute, seven doses; cited from earlier work.
[5] abbreviates: 600 μg/kg bodyweight (3×200 μg/kg) i.v. over 10 minutes each, vs placebo.
[6] abbreviates: 600 μg/kg bodyweight, vs placebo.

Like-named read-outs stand apart in the source and are kept apart here.

For the compound `CSCC[C@H](NC(=O)[C@H](CO)NC(=O)[C@H](Cc1ccc(O)cc1)NC(=O)[C@H](CO)NC(=O)[C@H](CCCCN)NC(=O)[C@H](CCCCN)NC(=O)[C@H](CCCCN)NC(=O)[C@H](CCCCN)NC(=O)[C@H](CCCCN)NC(=O)[C@H](CCCCN)NC(C)=O)C(=O)N[C@@H](CCC(=O)O)C(=O)N[C@@H](Cc1c[nH]cn1)C(=O)N[C@@H](Cc1ccccc1)C(=O)N[C@@H](CCCNC(=N)N)C(=O)N[C@@H](Cc1c[nH]c2ccccc12)C(=O)NCC(=O)N[C@@H](CCCCN)C(=O)N1CCC[C@H]1C(=O)N[C@H](C(N)=O)C(C)C` [AP214, Acetyl-Lysyl-L-lysyl-L-lysyl-L-lysyl-L-lysyl-L-lysyl-L-seryl-L-tyrosyl-L-seryl-L-methionyl-Lglutamyl-L-histidyl-L-phenylalanyl-L-arginyl-L-tryptophanyl-glycyl-L-lysyl-L-prolyl-L-valine amide], in series [1] (600 μg/kg), the “population distribution of extreme serum creatinine values (highest quartile)” value is listed as “showed a reduction in serum creatinine values at the highest quartile” and the “kidney function as measured by estimated GFR” value was “increased kidney function”. Moreover, in series [1] (800 μg/kg), the “population distribution of extreme serum creatinine values (highest quartile)” value is listed as “showed a reduction in serum creatinine values at the highest quartile” and the “kidney function as measured by estimated GFR” value is recorded as “increased kidney function”. For the same compound, in series [1] (800 μg/kg, Day 0-7), the “degree of acute kidney injury compared to placebo” value is recorded as “displayed lesser degrees of acute kidney injury”. The “incidence of AKI compared with PBO, by surgery type” value in series [1] (800 μg/kg, combined CABG and valve surgery, multiple valve surgery, chronic kidney disease and CABG (or valve surgery)) is “numerically lower incidence of AKI”. Moreover, the adverse events result in series [2] (100 μg/kg over 10 minutes i.v. (slower infusion rate)) is on record as “did not show these adverse effects”. The “adverse events versus 100 μg/kg over 30 sec and 1 minute” value in series [2] (200 μg/kg over 30 seconds i.v.) is reported as “more adverse events”. Further, in series [2] (Group 2 (n=6), short infusion times), the subjects with erythema was 6 subjects. Besides, the adverse events result in series [2] (Group 2 (n=6): 100 μg/kg over 1 minute, 100 μg/kg over 30 seconds, 200 μg/kg over 30 seconds, i.v.) was “A large number of adverse events were reported”. Besides, the “prevention of AKI as compared to placebo” value in series [3] (150 μg/kg bodyweight (3×50 μg/kg), same dosing scheme) was “showed no prevention of AKI”. Further, in series [3] (600 μg/kg (3×200 μg/kg), AP214 group of 12 patients, 7 of 13 in placebo group), the “patients who developed AKI (AKI as defined in the CS005 protocol)” value came out at 3 patients. Besides, the “development of AKI according to the RIFLE and AKIN scores” value in series [3] (600 μg/kg bodyweight (3×200 μg/kg)) is reported as “demonstrated prevention in the development of AKI”. In series [3] (setting [5]), the “decrease in eGFR” value is “prevented a decrease in eGFR” and the “increase in serum creatinine” value is “prevented”. Further, in series [3] (setting [6]), the increase in carbamide entry is “prevented” and the “increase in cystatin C” value was “prevented an increase in cystatin C”. Also, in series [4], the renoprotective effect entry is recorded as “provides a renoprotective effect”.
